Laboratory results published in US11066416B2, “Rapafucin derivative compounds and methods of use thereof” (The Johns Hopkins University, priority 2016, dated 2021).
Values belong to the compound of their own block, whether it stands above or below them.

What was measured:
Format in all cases: cell-based
[1] = test system: nucleoside uptake (3H-Thymidine); assay: Rel.Uptake: nucleoside uptake, single concentration assay, cell line as indicated in each table; conditions: response relative to DMSO
Method: (§1) Nucleoside Uptake Assay (uptake). Nuceloside uptake assays were performed with using 3H-Thymidine as described in Guo et al. (2018) Nat. Chem. 11:254-63. Specific cell lines are indicated in each assay and cultured in complete growth media. Activity is scored according to the IC50 values relative to DMSO control. “Low” indicates an IC50 greater than 600 nM, “Medium” indicates an IC50 between 300 nM and 600 nM “High” indicates an IC50 less than 300 nM. “Rel.Uptake” refers to uptake activity characterization relative to a single concentration assay. “Low” indicates a response greater than 0.6 times the activity relative to DMSO, “Medium” indicates a response between 0.6 and 0.3 times the activity relative to DMSO, “High” indicates a response less than 0.3 times the activity relative to DMSO.

293T = assay: Nucleoside uptake assay (uptake) using 3H-Thymidine, 293T; conditions: 293T cells
Method: as §1

[2] = test system: nucleoside uptake (3H-Thymidine); assay: Nucleoside uptake assay (uptake) using 3H-Thymidine, IC50, cell line as indicated in each table (none given in Table 8); conditions: 3H-Thymidine uptake; cell line not given
Method: as §1

[3] = IC50 class relative to DMSO control

Structure (SMILES): COc1ccc(CC[C@H]2OC(=O)[C@@H]3CCCCN3C(=O)C(=O)C(C)(C)COC(=O)C=CCCN(C)C(=O)[C@H](CC(C)C)N(C)C(=O)[C@H]3CCCN3C(=O)[C@H](Cc3ccc(CC(=O)OC(C)(C)C)cc3)NC(=O)C(c3ccccc3)NC(=O)CCC(=O)Nc3cccc2c3)cc1OC (some centres unmarked) [Compound 1081]
- Rel. Uptake, 293T ([1]; 293T): medium
- Uptake, 293T (293T; [3]): medium

Structure (SMILES): COc1ccc(CC[C@H]2OC(=O)[C@@H]3CCCCN3C(=O)C(=O)C(C)(C)COC(=O)C=CCCN(C)C(=O)[C@@H](c3ccccc3)NC(=O)[C@H](Cc3ccc(OP(C)(C)=O)cc3)NC(=O)[C@H]3CCCN3C(=O)[C@H](CC(C)C)N(C)C(=O)COc3cccc2c3)cc1OC [Compound 1520]
- Rel. Uptake, 293T ([1]; 293T, nucleoside uptake): low
- Uptake, 293T (293T; Table 16): low

Structure (SMILES): CCCCCCNC(=O)Cc1ccc(C[C@@H]2NC(=O)[C@H](c3ccccc3)NC(=O)CCC(=O)Nc3cccc(c3)[C@@H](CCc3ccc(OC)c(OC)c3)OC(=O)[C@@H]3CCCCN3C(=O)C(=O)C(C)(C)COC(=O)C=CCCN(C)C(=O)[C@H](CC(C)C)N(C)C(=O)[C@H]3CCCN3C2=O)cc1 [Compound 1591]
- Rel. Uptake, 293T ([1]; 293T, nucleoside uptake): Med
- IC50 (293T; Table 15): > 600 nM

Structure (SMILES): COc1ccc(CC[C@H]2OC(=O)[C@@H]3CCCCN3C(=O)C(=O)C(C)(C)COC(=O)C=CCCN(C)C(=O)[C@H](CC(C)C)N(C)C(=O)[C@H]3CCCN3C(=O)[C@H](Cc3ccc(O)cc3)NC(=O)C(c3ccccc3)NC(=O)CCC(=O)Nc3cccc2c3)cc1OC (some centres unmarked) [Compound 1522]
- Rel. Uptake, 293T ([1]; 293T, nucleoside uptake): high
- Uptake, 293T (293T; [3]): high

Structure (SMILES): COc1ccc(CC[C@H]2OC(=O)[C@@H]3CCCCN3C(=O)C(=O)C(C)(C)COC(=O)C=CCCN(C)C(=O)[C@H](CC(C)C)N(C)C(=O)[C@H]3CCCN3C(=O)[C@H](Cc3cccc(NC(C)=O)c3)NC(=O)[C@H](c3ccccc3)NC(=O)CCC(=O)Nc3cccc2c3)cc1OC [Compound 1588]
- Rel. Uptake, 293T ([1]; 293T, nucleoside uptake): High (“High” indicates a response less than 0.3 times the activity relative to DMSO)
- IC50 (293T; Table 14): < 300 nM

Structure (SMILES): COc1ccc(CC[C@H]2OC(=O)[C@@H]3CCCCN3C(=O)C(=O)C(C)(C)COC(=O)C=CCCN(C)C(=O)[C@H](CC(C)C)N(C)C(=O)[C@H]3CCCN3C(=O)[C@H](CC(=O)OC(C)(C)C)N(C)C(=O)C(c3ccccc3)NC(=O)CCC(=O)Nc3cccc2c3)cc1OC (some centres unmarked) [Compound 1066]
- Rel. Uptake, 293T ([1]; 293T): high
- Uptake, 293T (293T; [3]): high

Structure (SMILES): COc1ccc(CC[C@H]2OC(=O)[C@@H]3CCCCN3C(=O)C(=O)C(C)(C)COC(=O)C=CCCN(C)C(=O)[C@H](CC(C)C)N(C)C(=O)[C@H]3CCCN3C(=O)[C@H](Cc3ccc(C(=O)Nc4cccnc4)cc3)NC(=O)[C@H](c3ccccc3)NC(=O)CCC(=O)Nc3cccc2c3)cc1OC [Compound 1562]
- Rel. Uptake, 293T ([1]; 293T, nucleoside uptake): low
- Uptake, 293T (293T; Table 15): low

Structure (SMILES): COc1ccc(CC[C@H]2OC(=O)[C@@H]3CCCCN3C(=O)C(=O)C(C)(C)COC(=O)C=CCCN(C)C(=O)[C@H](CC(C)C)N(C)C(=O)[C@H]3CCCN3C(=O)[C@H](Cc3ccc(CNC(=O)CN(C)C)cc3)NC(=O)[C@H](c3ccccc3)NC(=O)CCC(=O)Nc3cccc2c3)cc1OC [Compound 1587]
- Rel. Uptake, 293T ([1]; 293T, nucleoside uptake): Low (“Low” indicates a response greater than 0.6 times the activity relative to DMSO)
- IC50 (293T; Table 14): > 600 nM

Structure (SMILES): COc1ccc(CC[C@H]2OC(=O)[C@@H]3CCCCN3C(=O)C(=O)C(C)(C)COC(=O)C=CCCN(C)NC(c3ccccc3)C(=O)N(C)[C@@H](Cc3ccccc3)C(=O)N3CCC[C@@H]3C(=O)N(C)[C@@H](CC(C)C)C(=O)C(=O)CCOc3cccc2c3)cc1OC (some centres unmarked) [Compound 1556]
- Rel. Uptake, 293T ([1]; 293T, nucleoside uptake): low
- Uptake, 293T (293T; [3]): low

- IC50 [2]: 55 nM
Structure (SMILES): COc1ccc(CC[C@H]2OC(=O)[C@@H]3CCCCN3C(=O)C(=O)C(C)(C)COC(=O)/C=C/CCN(C)C(=O)[C@H](C(C)C)N(C)C(=O)[C@@H]3CCCN3C(=O)[C@@H](Cc3ccccc3)N(C)C(=O)[C@H](Cc3ccccc3)NC(=O)CCC(=O)Nc3cccc2c3)cc1OC [Compound 1609]

Structure (SMILES): COc1ccc(CC[C@H]2OC(=O)[C@@H]3CCCCN3C(=O)C(=O)C(C)(C)COC(=O)C=CCCN(C)C(=O)[C@H](CC(C)C)N(C)C(=O)[C@H]3CCCN3C(=O)[C@H]3C[C@@H](NC(=O)OC(C)(C)C)CN3C(=O)C(c3ccccc3)NC(=O)CCC(=O)Nc3cccc2c3)cc1OC (some centres unmarked) [Compound 1087]
- Rel. Uptake, 293T ([1]; 293T cells): low
- Uptake, 293T (293T; [3]): low

Structure (SMILES): COc1ccc(CC[C@H]2OC(=O)[C@@H]3CCCCN3C(=O)C(=O)C(C)(C)COC(=O)C=CCCN(C)C(=O)[C@H](CC(C)C)N(C)C(=O)[C@H]3CCCN3C(=O)[C@H](Cc3ccc(CNC(=O)c4ccccc4)cc3)NC(=O)[C@H](c3ccccc3)NC(=O)CCC(=O)Nc3cccc2c3)cc1OC [Compound 1585]
- Rel. Uptake, 293T ([1]; 293T, nucleoside uptake): High (“High” indicates a response less than 0.3 times the activity relative to DMSO)
- IC50 (293T; Table 14): < 300 nM

- IC50 [2]: 262 nM
Structure (SMILES): COc1ccc(CC[C@H]2OC(=O)[C@@H]3CCCCN3C(=O)C(=O)C(C)(C)COC(=O)C=CCCN(C)C(=O)C3(CCCCC3)NC(=O)[C@@H]3CCCN3C(=O)[C@@H](Cc3ccccc3)N(C)C(=O)CNC(=O)COc3cccc2c3)cc1OC [Compound 1627]

Structure (SMILES): CCC[C@H]1C(=O)N(C)CCC=CC(=O)OCC(C)(C)C(=O)C(=O)N2CCCC[C@H]2C(=O)O[C@H](CCc2ccc(OC)c(OC)c2)c2cccc(c2)OCC(=O)NCC(=O)N(C)[C@H](Cc2ccccc2)C(=O)N2CCC[C@H]2C(=O)N1C [Compound 1625]
- IC50 [2]: 42.3 nM

Structure (SMILES): CC[C@H](C)[C@H]1C(=O)N(C)CC/C=C/C(=O)OCC(C)(C)C(=O)C(=O)N2CCCC[C@H]2C(=O)O[C@H](CCc2ccc(OC)c(OC)c2)c2cccc(c2)NC(=O)CCC(=O)N[C@@H](C)C(=O)N(C)[C@H](Cc2ccccc2)C(=O)N2CCC[C@H]2C(=O)N1C [Compound 1614]
- IC50 [2]: 34.4 nM

- IC50 [2]: 173 nM
Structure (SMILES): CCC[C@@H]1NC(=O)COc2cccc(c2)[C@@H](CCc2ccc(OC)c(OC)c2)OC(=O)[C@@H]2CCCCN2C(=O)C(=O)C(C)(C)COC(=O)/C=C/CCN(C)C(=O)[C@H]([C@@H](C)CC)N(C)C(=O)[C@@H]2CCCN2C(=O)[C@@H](Cc2ccccc2)N(C)C1=O [Compound 1618]

Structure (SMILES): CCCC[C@H]1C(=O)N(C)CCC=CC(=O)OCC(C)(C)C(=O)C(=O)N2CCCC[C@H]2C(=O)O[C@H](CCc2ccc(OC)c(OC)c2)c2cccc(c2)OCC(=O)N[C@@H](C)C(=O)N(C)[C@H](Cc2ccccc2)C(=O)N2CCC[C@H]2C(=O)N1C [Compound 1621]
- IC50 [2]: 9.76 nM

- IC50 [2]: 28.5 nM
Structure (SMILES): COc1ccc(CC[C@H]2OC(=O)[C@@H]3CCCCN3C(=O)C(=O)C(C)(C)COC(=O)C=CCCN(C)C(=O)[C@H](CC(C)C)N(C)C(=O)[C@@H]3CCCN3C(=O)[C@@H](Cc3ccccc3)N(C)C(=O)CNC(=O)COc3cccc2c3)cc1OC [Compound 1622]

- IC50 [2]: 12.2 nM
Structure (SMILES): CCC[C@@H]1NC(=O)CCC(=O)Nc2cccc(c2)[C@@H](CCc2ccc(OC)c(OC)c2)OC(=O)[C@@H]2CCCCN2C(=O)C(=O)C(C)(C)COC(=O)/C=C/CCN(C)C(=O)[C@H]([C@@H](C)CC)N(C)C(=O)[C@@H]2CCCN2C(=O)[C@@H](Cc2ccccc2)N(C)C1=O [Compound 1615]

- IC50 [2]: 23.7 nM
Structure (SMILES): COc1ccc(CC[C@H]2OC(=O)[C@@H]3CCCCN3C(=O)C(=O)C(C)(C)COC(=O)/C=C/CCN(C)C(=O)[C@H](C(C)C)N(C)C(=O)[C@@H]3CCCN3C(=O)[C@@H](Cc3ccccc3)N(C)C(=O)[C@H](C)NC(=O)CCC(=O)Nc3cccc2c3)cc1OC [Compound 1606]

- IC50 [2]: 16.5 nM
Structure (SMILES): COc1ccc(CC[C@H]2OC(=O)[C@@H]3CCCCN3C(=O)C(=O)C(C)(C)COC(=O)/C=C/CCN(C)C(=O)[C@H](C(C)C)N(C)C(=O)[C@@H]3CCCN3C(=O)[C@@H](Cc3ccccc3)N(C)C(=O)[C@H](c3ccccc3)NC(=O)CCC(=O)Nc3cccc2c3)cc1OC [Compound 1610]

- IC50 [2]: 59.5 nM
Structure (SMILES): COCC[C@@H]1NC(=O)COc2cccc(c2)[C@@H](CCc2ccc(OC)c(OC)c2)OC(=O)[C@@H]2CCCCN2C(=O)C(=O)C(C)(C)COC(=O)/C=C/CCN(C)C(=O)[C@H](C(C)C)N(C)C(=O)[C@@H]2CCCN2C(=O)[C@@H](Cc2ccccc2)N(C)C1=O [Compound 1613]

- IC50 [2]: 48.9 nM
Structure (SMILES): COc1ccc(CC[C@H]2OC(=O)[C@@H]3CCCCN3C(=O)C(=O)C(C)(C)COC(=O)/C=C/CCN(C)C(=O)[C@H](C(C)C)N(C)C(=O)[C@@H]3CCCN3C(=O)[C@@H](Cc3ccccc3)N(C)C(=O)CNC(=O)COc3cccc2c3)cc1OC [Compound 1611]

- IC50 [2]: 18 nM
Structure (SMILES): CCC[C@@H]1NC(=O)CCC(=O)Nc2cccc(c2)[C@@H](CCc2ccc(OC)c(OC)c2)OC(=O)[C@@H]2CCCCN2C(=O)C(=O)C(C)(C)COC(=O)/C=C/CCN(C)C(=O)[C@H](C(C)C)N(C)C(=O)[C@@H]2CCCN2C(=O)[C@@H](Cc2ccccc2)N(C)C1=O [Compound 1607]

- IC50 [2]: 66.7 nM
Structure (SMILES): COc1ccc(CC[C@H]2OC(=O)[C@@H]3CCCCN3C(=O)C(=O)C(C)(C)COC(=O)/C=C/CCN(C)C(=O)[C@H](C)N(C)C(=O)[C@@H]3CCCN3C(=O)[C@@H](Cc3ccccc3)N(C)C(=O)[C@H](C)NC(=O)COc3cccc2c3)cc1OC [Compound 1619]

- IC50 [2]: 31.4 nM
Structure (SMILES): COc1ccc(CC[C@H]2OC(=O)[C@@H]3CCCCN3C(=O)C(=O)C(C)(C)COC(=O)C=CCCN(C)C(=O)[C@H](CC(C)C)N(C)C(=O)[C@@H]3CCCN3C(=O)[C@@H](Cc3ccccc3)N(C)C(=O)[C@H](C)NC(=O)CCC(=O)Nc3cccc2c3)cc1OC [Compound 1624]

- IC50 [2]: 155 nM
Structure (SMILES): COc1ccc(CC[C@H]2OC(=O)[C@@H]3CCCCN3C(=O)C(=O)C(C)(C)COC(=O)C=CCCN(C)C(=O)[C@@H](C)N(C)C(=O)[C@@H]3CCCN3C(=O)[C@@H](Cc3ccccc3)N(C)C(=O)CNC(=O)COc3cccc2c3)cc1OC [Compound 1626]
